Experimental data taken from US9050341B2, “Methods of treating drug resistant and other tumors by administering 6,7-dialkoxy quinazoline derivatives” (NATCO PHARMA LIMITED, priority 2009, dated 2015).

Legend:
Experiment in all cases: KinomeScan kinase profiling
Type in all cases: binding
AURKA = target: T1, AURKA (Homo sapiens, UniProt O14965)
T1 construct: purchased Ambit Biosciences Corp (KinomeScan); host or cells: E. coli host derived from the BL21 strain, T7 phage
Summary of the method: (§1)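 Kinases were expressed as T7 phage fusions in a BL21-derived E. coli host and the cleared lysates were used. Ligand beads were blocked with biotin and buffer (1% BSA, 0.05% Tween 20, 1 mM DTT). Compounds came from 40× DMSO stocks, and phage in the eluates was titred by qPCR.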

CSF1R = target: T2, CSF1R (Homo sapiens, UniProt P07333)
T2 construct: host or cells: T7 phage in E. coli (BL21-derived)
Summary of the method: as §1

ABL1 (Q252H) = target: T3, ABL1 (Q252H) (Homo sapiens, UniProt P00519, Q252H)
T3 construct: host or cells: E. coli host derived from BL21 (T7 phage lysate)
Summary of the method: as §1

CAMK2D = target: T4, CAMK2D (Homo sapiens, UniProt Q13557)
T4 construct: purchased Ambit Biosciences Corp (KinomeScan); host or cells: E. coli host derived from the BL21 strain, T7 phage
Summary of the method: as §1

KIT (V559D, V654A) = target: T5, KIT (V559D, V654A) (Homo sapiens, UniProt P10721, V559D/V654A)
T5 construct: host or cells: T7 phage in E. coli host derived from BL21
Summary of the method: as §1

ZAP70 = target: T6, ZAP70 (Homo sapiens, UniProt P43403)
T6 construct: host or cells: E. coli host derived from the BL21 strain, infected with T7 phage
Summary of the method: as §1

[1] = target: T7, RPS6KA4 (Kin.Dom.-2-C-terminal) (Homo sapiens, UniProt O75676)
T7 construct: RPS6KA4(KIN.DOM.2); host or cells: E. coli host derived from BL21, T7 phage lysate
Summary of the method: as §1

IRAK3 = target: T8, IRAK3 (Homo sapiens, UniProt Q9Y616)
T8 construct: host or cells: T7 phage in E. coli host derived from BL21
Summary of the method: as §1

ZAK = target: T9, ZAK (Homo sapiens, UniProt Q9NYL2)
T9 construct: host or cells: E. coli host derived from the BL21 strain, infected with T7 phage
Summary of the method: as §1

EGFR (G719S) = target: T10, EGFR (G719S) (Homo sapiens, UniProt P00533, G719S)
T10 construct: purchased Ambit Biosciences Corp (KinomeScan); host or cells: T7 phage in E. coli host derived from BL21
Summary of the method: as §1

MST4 = target: T11, MST4 (Homo sapiens, UniProt Q9P289)
T11 construct: host or cells: T7 phage in E. coli host derived from BL21
Summary of the method: as §1

MRCKA = target: T12, MRCKA (Homo sapiens, UniProt Q5VT25)
T12 construct: host or cells: T7 phage in E. coli host derived from BL21
Summary of the method: as §1

MAP3K4 = target: T13, MAP3K4 (Homo sapiens, UniProt Q9Y6R4)
T13 construct: host or cells: E. coli derived from BL21, infected with T7 phage
Summary of the method: as §1

ERK4 = target: T14, ERK4 (Homo sapiens, UniProt P31152)
T14 construct: host or cells: E. coli host derived from BL21, T7 phage lysate
Summary of the method: as §1

TNNI3K = target: T15, TNNI3K (Homo sapiens, UniProt Q59H18)
T15 construct: purchased Ambit Biosciences Corp (KinomeScan); host or cells: E. coli host derived from the BL21 strain (T7 phage lysate)
Summary of the method: as §1

TNK1 = target: T16, TNK1 (Homo sapiens, UniProt Q13470)
T16 construct: purchased Ambit Biosciences Corp (KinomeScan); host or cells: E. coli host derived from the BL21 strain (T7 phage lysate)
Summary of the method: as §1

SIK = target: T17, SIK (Homo sapiens, UniProt P57059)
T17 construct: host or cells: E. coli host derived from the BL21 strain, T7 phage lysate
Summary of the method: as §1

ASK1 = target: T18, ASK1 (Homo sapiens, UniProt Q99683)
T18 construct: purchased Ambit Biosciences Corp (KinomeScan); host or cells: E. coli host derived from the BL21 strain, T7 phage
Summary of the method: as §1

CAMK2A = target: T19, CAMK2A (Homo sapiens, UniProt Q9UQM7)
T19 construct: purchased Ambit Biosciences Corp (KinomeScan); host or cells: E. coli host derived from the BL21 strain, T7 phage
Summary of the method: as §1

ERBB4 = target: T20, ERBB4 (Homo sapiens, UniProt Q15303)
T20 construct: host or cells: E. coli host derived from BL21, T7 phage lysate
Summary of the method: as §1

CSNK1D = target: T21, CSNK1D (Homo sapiens, UniProt P48730)
T21 construct: host or cells: T7 phage in E. coli (BL21-derived)
Summary of the method: as §1

SLK = target: T22, SLK (Homo sapiens, UniProt Q9H2G2)
T22 construct: host or cells: E. coli host derived from the BL21 strain, T7 phage lysate
Summary of the method: as §1

T16 sequence (Q13470 whole entry): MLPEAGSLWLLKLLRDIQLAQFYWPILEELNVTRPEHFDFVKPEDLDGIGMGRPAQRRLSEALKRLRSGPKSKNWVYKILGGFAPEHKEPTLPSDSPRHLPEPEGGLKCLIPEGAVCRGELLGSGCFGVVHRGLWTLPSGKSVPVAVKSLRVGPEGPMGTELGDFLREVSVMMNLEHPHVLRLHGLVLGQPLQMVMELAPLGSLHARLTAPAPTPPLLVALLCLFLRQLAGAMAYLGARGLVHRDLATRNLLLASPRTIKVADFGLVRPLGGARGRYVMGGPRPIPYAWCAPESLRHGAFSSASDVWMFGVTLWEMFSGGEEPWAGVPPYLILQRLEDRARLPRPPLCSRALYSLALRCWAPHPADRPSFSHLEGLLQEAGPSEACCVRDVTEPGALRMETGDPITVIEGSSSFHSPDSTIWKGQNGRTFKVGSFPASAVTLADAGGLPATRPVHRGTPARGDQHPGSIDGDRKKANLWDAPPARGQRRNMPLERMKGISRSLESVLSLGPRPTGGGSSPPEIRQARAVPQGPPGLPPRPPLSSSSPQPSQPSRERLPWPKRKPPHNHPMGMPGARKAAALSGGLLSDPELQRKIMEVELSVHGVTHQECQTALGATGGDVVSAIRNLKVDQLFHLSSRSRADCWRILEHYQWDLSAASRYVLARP
T7 sequence (O75676 411-674 limits assumed): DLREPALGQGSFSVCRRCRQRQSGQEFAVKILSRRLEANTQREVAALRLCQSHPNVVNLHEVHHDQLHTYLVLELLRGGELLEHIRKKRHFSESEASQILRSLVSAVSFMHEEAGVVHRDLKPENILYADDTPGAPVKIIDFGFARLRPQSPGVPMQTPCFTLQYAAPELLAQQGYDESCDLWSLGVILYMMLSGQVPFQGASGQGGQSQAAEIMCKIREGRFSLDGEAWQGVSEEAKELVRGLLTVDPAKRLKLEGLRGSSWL
T12 sequence (Q5VT25 whole entry): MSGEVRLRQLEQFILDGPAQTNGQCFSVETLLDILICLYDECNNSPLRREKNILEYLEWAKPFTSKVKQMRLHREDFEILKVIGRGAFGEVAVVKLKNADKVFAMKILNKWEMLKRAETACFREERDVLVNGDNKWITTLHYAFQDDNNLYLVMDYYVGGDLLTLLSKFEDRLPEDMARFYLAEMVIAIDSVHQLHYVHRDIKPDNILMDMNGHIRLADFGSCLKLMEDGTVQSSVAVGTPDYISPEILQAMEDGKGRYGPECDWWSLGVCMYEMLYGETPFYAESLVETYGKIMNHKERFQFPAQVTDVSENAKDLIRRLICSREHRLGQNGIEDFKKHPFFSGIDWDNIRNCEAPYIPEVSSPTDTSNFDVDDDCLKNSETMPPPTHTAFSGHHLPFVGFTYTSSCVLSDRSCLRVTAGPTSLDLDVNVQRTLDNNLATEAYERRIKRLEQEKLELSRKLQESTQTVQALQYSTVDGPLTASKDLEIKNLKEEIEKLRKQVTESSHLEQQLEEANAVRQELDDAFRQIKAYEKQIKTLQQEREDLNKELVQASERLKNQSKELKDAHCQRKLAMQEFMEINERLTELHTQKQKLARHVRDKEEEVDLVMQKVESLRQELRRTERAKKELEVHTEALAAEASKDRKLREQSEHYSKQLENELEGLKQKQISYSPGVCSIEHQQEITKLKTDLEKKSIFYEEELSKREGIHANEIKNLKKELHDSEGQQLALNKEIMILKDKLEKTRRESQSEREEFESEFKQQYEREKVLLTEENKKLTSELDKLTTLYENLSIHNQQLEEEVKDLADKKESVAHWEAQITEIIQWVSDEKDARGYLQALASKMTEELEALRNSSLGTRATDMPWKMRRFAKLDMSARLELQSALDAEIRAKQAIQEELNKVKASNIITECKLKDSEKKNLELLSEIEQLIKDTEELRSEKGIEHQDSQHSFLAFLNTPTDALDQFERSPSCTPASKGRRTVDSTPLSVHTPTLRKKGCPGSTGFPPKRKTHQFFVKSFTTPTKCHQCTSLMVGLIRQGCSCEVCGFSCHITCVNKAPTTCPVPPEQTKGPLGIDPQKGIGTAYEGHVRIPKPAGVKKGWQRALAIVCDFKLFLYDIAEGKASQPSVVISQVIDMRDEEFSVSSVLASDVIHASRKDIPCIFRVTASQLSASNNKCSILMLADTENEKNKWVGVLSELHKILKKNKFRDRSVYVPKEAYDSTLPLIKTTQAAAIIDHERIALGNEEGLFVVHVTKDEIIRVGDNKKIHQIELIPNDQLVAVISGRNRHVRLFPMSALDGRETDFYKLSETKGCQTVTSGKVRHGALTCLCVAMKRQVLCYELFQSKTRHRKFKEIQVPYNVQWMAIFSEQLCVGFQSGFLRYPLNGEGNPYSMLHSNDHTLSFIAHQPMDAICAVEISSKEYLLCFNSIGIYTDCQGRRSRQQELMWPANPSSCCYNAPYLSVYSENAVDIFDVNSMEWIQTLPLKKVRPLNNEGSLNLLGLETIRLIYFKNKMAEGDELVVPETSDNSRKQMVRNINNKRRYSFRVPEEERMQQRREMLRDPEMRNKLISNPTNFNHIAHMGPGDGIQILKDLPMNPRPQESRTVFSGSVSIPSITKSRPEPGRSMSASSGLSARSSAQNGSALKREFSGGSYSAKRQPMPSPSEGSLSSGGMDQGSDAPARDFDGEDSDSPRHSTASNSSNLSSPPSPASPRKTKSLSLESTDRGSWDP
T14 sequence (P31152 whole entry): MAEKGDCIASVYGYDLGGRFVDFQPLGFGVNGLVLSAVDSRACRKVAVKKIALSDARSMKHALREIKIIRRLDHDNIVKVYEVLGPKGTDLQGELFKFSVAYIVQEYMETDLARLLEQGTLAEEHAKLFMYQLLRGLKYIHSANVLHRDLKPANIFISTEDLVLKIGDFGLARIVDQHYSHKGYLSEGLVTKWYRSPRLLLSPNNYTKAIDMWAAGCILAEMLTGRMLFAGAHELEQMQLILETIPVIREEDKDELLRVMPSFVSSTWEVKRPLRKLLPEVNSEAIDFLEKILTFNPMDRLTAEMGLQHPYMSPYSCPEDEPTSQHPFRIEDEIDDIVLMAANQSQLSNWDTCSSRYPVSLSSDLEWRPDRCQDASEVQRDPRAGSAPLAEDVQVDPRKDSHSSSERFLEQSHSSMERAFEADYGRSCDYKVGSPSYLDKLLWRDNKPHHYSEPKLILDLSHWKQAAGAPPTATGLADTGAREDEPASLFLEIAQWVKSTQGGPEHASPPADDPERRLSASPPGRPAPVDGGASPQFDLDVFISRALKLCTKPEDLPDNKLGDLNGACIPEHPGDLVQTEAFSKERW
T13 sequence (Q9Y6R4 whole entry): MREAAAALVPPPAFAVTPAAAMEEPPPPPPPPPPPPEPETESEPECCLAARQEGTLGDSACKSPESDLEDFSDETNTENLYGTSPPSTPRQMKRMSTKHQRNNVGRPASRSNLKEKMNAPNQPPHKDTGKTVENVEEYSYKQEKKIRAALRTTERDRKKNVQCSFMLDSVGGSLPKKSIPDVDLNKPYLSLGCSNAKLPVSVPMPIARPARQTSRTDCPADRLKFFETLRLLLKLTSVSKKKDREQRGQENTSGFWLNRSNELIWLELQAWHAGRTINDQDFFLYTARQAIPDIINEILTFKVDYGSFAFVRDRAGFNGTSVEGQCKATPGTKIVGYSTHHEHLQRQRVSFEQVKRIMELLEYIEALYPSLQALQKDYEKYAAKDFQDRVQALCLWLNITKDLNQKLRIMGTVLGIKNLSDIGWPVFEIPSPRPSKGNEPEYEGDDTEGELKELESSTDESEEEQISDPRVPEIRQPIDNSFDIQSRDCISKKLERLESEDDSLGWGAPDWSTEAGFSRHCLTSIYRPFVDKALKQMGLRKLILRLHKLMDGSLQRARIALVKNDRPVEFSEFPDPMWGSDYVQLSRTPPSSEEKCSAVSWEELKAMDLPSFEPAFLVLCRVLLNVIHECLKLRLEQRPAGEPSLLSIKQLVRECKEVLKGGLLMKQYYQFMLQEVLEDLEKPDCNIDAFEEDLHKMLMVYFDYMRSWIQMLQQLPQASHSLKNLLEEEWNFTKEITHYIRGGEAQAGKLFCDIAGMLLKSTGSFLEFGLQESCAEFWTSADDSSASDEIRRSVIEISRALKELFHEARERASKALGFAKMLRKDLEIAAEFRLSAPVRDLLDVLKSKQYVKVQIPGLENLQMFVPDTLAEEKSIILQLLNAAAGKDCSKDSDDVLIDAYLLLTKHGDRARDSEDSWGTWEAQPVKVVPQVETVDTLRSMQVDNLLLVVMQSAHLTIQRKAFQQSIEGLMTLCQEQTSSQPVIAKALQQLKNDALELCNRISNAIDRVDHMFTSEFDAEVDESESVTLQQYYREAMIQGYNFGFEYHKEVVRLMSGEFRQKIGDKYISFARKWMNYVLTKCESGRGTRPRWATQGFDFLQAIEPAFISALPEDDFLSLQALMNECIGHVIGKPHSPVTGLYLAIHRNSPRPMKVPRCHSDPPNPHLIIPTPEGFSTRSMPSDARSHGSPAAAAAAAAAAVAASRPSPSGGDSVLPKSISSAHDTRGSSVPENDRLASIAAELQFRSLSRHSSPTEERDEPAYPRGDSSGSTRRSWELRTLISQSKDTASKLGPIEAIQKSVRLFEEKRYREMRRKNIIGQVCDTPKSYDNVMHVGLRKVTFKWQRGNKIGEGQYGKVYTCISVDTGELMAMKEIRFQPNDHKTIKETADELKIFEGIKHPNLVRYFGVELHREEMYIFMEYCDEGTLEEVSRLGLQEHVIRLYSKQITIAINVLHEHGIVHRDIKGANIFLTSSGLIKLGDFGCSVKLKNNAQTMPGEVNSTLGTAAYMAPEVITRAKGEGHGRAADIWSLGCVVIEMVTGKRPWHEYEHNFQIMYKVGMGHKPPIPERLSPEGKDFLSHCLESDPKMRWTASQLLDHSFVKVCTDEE

SMILES: C#Cc1cccc(Nc2ncnc3cc(OC)c(OCCCN4CCOCC4)cc23)c1 [NRC-2694, N-(3-ethylnylphenyl)-7-methoxy-6-[3-(4-morpholinyl)propoxy]-4-quinazolinamine]
- % Ctrl @ 10000 nM (AURKA): 100 % Ctrl
- % Ctrl @ 10000 nM (CSF1R): 50 % Ctrl
- % Ctrl @ 10000 nM (ABL1 (Q252H)): 15 % Ctrl
- % Ctrl @ 10000 nM (CAMK2D): 35 % Ctrl
- % Ctrl @ 10000 nM (KIT (V559D, V654A)): 47 % Ctrl
- % Ctrl @ 10000 nM (ZAP70): 100 % Ctrl
- % Ctrl @ 10000 nM [1]: 8.9 % Ctrl
- % Ctrl @ 10000 nM (IRAK3): 25 % Ctrl
- % Ctrl @ 10000 nM (ZAK): 74 % Ctrl
- % Ctrl @ 10000 nM (EGFR (G719S)): 0 % Ctrl
- % Ctrl @ 10000 nM (MST4): 29 % Ctrl
- % Ctrl @ 10000 nM (MRCKA): 81 % Ctrl
- % Ctrl @ 10000 nM (MAP3K4): 53 % Ctrl
- % Ctrl @ 10000 nM (ERK4): 3.7 % Ctrl
- % Ctrl @ 10000 nM (TNNI3K): 7.6 % Ctrl
- % Ctrl @ 10000 nM (TNK1): 41 % Ctrl
- % Ctrl @ 10000 nM (SIK): 53 % Ctrl
- % Ctrl @ 10000 nM (ASK1): 100 % Ctrl
- % Ctrl @ 10000 nM (CAMK2A): 63 % Ctrl
- % Ctrl @ 10000 nM (ERBB4): 3.3 % Ctrl
- % Ctrl @ 10000 nM (CSNK1D): 25 % Ctrl
- % Ctrl @ 10000 nM (SLK): 0.3 % Ctrl
